Experimental data from ChEMBL document CHEMBL4507266, “Data for DCP probe BAY-784” (2021).

How the values were obtained:
[1] = system: Tyrosine-protein kinase ABL1 (Homo sapiens), P00519 [F317L]; details: Compound concentration 1000.0 nM
[2] = target: Atypical kinase COQ8A, mitochondrial (Homo sapiens) (UniProt Q8NI60); details: Compound concentration 1000.0 nM
[3] = target: 5'-AMP-activated protein kinase catalytic subunit alpha-1 (Homo sapiens) (UniProt Q13131); details: Compound concentration 1000.0 nM
[4] = target: Aurora kinase B (Homo sapiens) (UniProt Q96GD4); details: Compound concentration 1000.0 nM
[5] = target: Serine/threonine-protein kinase Chk1 (Homo sapiens) (UniProt O14757); details: Compound concentration 1000.0 nM
[6] = target: Dual specificity protein kinase CLK2 (Homo sapiens) (UniProt P49760); details: Compound concentration 1000.0 nM
[7] = target: Casein kinase I isoform gamma-2 (Homo sapiens) (UniProt P78368); details: Compound concentration 1000.0 nM
[8] = target: Death-associated protein kinase 1 (Homo sapiens) (UniProt P53355); details: Compound concentration 1000.0 nM
[9] = target: Ephrin type-A receptor 1 (Homo sapiens) (UniProt P21709); details: Compound concentration 1000.0 nM
Ephrin type-A receptor 1 (Homo sapiens), sequence (P21709 whole entry): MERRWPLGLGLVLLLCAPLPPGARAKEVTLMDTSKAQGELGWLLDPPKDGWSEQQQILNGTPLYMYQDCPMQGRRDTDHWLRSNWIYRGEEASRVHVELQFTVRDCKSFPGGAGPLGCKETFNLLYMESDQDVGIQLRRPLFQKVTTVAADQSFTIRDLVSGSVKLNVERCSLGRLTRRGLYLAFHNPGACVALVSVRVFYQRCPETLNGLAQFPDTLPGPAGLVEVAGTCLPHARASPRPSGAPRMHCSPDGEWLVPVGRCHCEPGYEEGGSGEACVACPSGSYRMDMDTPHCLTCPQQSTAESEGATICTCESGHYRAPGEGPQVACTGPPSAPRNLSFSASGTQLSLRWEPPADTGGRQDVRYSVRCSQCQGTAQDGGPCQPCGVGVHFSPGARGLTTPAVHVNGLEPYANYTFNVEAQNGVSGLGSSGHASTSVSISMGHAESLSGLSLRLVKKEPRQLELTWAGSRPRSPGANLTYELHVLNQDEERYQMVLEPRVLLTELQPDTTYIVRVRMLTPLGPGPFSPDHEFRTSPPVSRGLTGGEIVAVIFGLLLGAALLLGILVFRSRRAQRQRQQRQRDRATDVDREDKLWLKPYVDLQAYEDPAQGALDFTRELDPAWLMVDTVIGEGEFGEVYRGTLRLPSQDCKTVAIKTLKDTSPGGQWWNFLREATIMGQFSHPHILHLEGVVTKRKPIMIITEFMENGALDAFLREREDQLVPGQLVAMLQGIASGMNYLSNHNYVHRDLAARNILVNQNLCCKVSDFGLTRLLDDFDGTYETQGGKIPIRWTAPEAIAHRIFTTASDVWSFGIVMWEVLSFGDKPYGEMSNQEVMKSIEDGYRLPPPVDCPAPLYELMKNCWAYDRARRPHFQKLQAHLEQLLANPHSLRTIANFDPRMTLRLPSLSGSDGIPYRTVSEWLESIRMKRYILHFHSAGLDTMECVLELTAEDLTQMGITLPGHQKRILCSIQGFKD

[10] = target: Ephrin type-A receptor 8 (Homo sapiens) (UniProt P29322); details: Compound concentration 1000.0 nM
[11] = target: Ephrin type-B receptor 1 (Homo sapiens) (UniProt P54762); details: Compound concentration 1000.0 nM
[12] = target: Vascular endothelial growth factor receptor 3 (Homo sapiens) (UniProt P35916); details: Compound concentration 1000.0 nM
[13] = target: Inhibitor of nuclear factor kappa-B kinase subunit epsilon (Homo sapiens) (UniProt Q14164); details: Compound concentration 1000.0 nM
[14] = system: Mast/stem cell growth factor receptor Kit (Homo sapiens), P10721 [V559D,V654A]; details: Compound concentration 1000.0 nM
[15] = system: Leucine-rich repeat serine/threonine-protein kinase 2 (Homo sapiens), Q5S007 [G2019S]; details: Compound concentration 1000.0 nM
Leucine-rich repeat serine/threonine-protein kinase 2 (Homo sapiens), Q5S007 [G2019S], sequence (Q5S007 whole entry G2019S): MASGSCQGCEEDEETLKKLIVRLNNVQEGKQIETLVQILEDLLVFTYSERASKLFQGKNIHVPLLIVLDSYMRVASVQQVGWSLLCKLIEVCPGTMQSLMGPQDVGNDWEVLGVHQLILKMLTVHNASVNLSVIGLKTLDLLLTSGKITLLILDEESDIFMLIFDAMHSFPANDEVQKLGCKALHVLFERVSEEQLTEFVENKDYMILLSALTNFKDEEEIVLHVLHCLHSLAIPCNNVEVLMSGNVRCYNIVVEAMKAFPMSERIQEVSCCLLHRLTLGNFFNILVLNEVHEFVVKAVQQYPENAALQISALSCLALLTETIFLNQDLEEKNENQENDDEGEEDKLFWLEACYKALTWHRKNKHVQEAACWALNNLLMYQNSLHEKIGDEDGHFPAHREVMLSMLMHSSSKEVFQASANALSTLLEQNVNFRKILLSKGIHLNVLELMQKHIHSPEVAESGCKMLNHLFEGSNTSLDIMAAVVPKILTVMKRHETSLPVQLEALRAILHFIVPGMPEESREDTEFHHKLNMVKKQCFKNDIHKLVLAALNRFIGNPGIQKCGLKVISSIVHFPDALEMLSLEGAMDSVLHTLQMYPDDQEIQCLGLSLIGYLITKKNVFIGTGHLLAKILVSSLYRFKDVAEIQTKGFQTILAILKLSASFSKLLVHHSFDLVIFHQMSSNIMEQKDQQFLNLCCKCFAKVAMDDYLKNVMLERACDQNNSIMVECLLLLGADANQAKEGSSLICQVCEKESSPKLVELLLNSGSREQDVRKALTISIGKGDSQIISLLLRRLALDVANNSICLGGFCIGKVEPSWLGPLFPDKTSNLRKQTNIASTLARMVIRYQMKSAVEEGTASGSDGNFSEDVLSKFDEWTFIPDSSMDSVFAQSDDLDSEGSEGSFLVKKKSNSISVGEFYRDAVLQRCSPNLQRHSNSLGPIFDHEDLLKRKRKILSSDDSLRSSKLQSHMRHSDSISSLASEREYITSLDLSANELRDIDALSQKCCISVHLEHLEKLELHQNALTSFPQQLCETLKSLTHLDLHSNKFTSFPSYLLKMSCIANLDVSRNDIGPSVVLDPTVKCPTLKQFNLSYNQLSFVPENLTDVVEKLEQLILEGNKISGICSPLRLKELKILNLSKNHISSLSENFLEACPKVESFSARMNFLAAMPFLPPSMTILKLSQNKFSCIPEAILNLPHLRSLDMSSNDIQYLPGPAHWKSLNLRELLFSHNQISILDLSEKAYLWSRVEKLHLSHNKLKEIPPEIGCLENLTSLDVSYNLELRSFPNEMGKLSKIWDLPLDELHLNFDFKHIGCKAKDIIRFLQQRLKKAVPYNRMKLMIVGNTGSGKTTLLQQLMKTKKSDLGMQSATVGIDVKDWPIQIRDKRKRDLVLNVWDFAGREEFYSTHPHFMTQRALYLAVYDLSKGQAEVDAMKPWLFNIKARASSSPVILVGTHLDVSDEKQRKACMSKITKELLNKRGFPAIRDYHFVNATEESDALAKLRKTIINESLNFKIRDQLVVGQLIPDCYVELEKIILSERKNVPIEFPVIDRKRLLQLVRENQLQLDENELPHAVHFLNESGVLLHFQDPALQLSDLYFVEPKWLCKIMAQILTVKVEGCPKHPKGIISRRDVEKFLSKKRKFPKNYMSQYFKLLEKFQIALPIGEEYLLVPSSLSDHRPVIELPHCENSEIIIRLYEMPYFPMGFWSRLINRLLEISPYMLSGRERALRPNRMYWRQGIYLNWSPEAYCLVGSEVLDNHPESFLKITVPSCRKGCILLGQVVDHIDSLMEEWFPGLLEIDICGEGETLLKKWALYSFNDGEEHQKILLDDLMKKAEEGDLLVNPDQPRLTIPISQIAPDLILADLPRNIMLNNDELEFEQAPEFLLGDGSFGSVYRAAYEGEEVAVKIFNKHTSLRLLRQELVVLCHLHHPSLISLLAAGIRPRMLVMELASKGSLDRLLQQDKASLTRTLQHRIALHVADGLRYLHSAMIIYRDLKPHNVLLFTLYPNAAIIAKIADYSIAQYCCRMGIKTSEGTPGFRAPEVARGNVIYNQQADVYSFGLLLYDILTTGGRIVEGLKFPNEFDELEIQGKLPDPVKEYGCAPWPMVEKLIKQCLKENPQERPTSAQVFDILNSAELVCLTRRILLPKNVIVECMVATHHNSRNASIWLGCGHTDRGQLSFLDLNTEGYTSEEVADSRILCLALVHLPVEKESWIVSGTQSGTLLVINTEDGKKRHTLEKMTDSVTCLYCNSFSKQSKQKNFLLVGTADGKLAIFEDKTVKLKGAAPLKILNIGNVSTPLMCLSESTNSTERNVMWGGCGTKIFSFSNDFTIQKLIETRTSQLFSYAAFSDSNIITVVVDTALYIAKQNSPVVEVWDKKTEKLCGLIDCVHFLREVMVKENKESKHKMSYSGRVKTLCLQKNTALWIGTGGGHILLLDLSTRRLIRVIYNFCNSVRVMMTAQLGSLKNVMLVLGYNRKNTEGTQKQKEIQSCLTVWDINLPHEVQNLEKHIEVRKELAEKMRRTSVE

[16] = target: Serine/threonine-protein kinase MAK (Homo sapiens) (UniProt P20794); details: Compound concentration 1000.0 nM
Serine/threonine-protein kinase MAK (Homo sapiens), sequence (P20794 whole entry): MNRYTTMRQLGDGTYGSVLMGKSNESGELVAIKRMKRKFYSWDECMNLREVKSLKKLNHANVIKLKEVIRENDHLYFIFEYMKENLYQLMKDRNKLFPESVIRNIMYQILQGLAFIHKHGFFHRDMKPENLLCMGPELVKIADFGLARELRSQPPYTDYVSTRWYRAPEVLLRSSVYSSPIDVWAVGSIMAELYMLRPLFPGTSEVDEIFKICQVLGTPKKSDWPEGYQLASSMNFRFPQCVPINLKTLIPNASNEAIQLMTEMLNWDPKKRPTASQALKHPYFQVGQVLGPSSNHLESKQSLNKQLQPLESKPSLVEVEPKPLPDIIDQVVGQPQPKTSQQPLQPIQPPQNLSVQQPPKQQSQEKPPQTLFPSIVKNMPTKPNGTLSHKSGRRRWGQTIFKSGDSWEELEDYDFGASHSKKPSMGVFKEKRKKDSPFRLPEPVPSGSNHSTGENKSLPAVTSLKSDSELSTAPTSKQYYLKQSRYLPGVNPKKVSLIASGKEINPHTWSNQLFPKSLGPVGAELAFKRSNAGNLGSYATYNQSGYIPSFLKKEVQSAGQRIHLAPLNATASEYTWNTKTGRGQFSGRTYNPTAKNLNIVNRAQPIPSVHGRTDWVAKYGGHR

[17] = target: Microtubule-associated serine/threonine-protein kinase 1 (Homo sapiens) (UniProt Q9Y2H9); details: Compound concentration 1000.0 nM
[18] = target: MAP kinase-interacting serine/threonine-protein kinase 2 (Homo sapiens) (UniProt Q9HBH9); details: Compound concentration 1000.0 nM
[19] = target: Mitogen-activated protein kinase kinase kinase 11 (Homo sapiens) (UniProt Q16584); details: Compound concentration 1000.0 nM
[20] = target: Serine/threonine-protein kinase Nek1 (Homo sapiens) (UniProt Q96PY6); details: Compound concentration 1000.0 nM
[21] = target: Serine/threonine-protein kinase Nek4 (Homo sapiens) (UniProt P51957); details: Compound concentration 1000.0 nM
[22] = target: Mitogen-activated protein kinase 14 (Homo sapiens) (UniProt Q16539); details: Compound concentration 1000.0 nM
[23] = target: Mitogen-activated protein kinase 12 (Homo sapiens) (UniProt P53778); details: Compound concentration 1000.0 nM
[24] = target: Cyclin-dependent kinase 17 (Homo sapiens) (UniProt Q00537); details: Compound concentration 1000.0 nM
[25] = system: Phosphatidylinositol 4,5-bisphosphate 3-kinase catalytic subunit alpha isoform (Homo sapiens), P42336 [E545K]; details: Compound concentration 1000.0 nM
[26] = target: cAMP-dependent protein kinase catalytic subunit PRKX (Homo sapiens) (UniProt P51817); details: Compound concentration 1000.0 nM
cAMP-dependent protein kinase catalytic subunit PRKX (Homo sapiens), sequence (P51817 whole entry): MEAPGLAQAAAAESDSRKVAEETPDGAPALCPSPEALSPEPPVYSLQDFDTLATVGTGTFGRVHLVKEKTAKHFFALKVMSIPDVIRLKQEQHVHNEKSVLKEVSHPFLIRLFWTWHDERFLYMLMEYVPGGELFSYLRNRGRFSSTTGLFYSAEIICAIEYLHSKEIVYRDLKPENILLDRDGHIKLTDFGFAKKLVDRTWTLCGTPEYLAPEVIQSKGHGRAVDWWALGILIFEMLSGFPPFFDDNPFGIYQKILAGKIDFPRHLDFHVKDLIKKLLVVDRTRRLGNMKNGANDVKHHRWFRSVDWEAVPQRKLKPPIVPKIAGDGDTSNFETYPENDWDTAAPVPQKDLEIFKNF

[27] = target: Serine/threonine-protein kinase TBK1 (Homo sapiens) (UniProt Q9UHD2); details: Compound concentration 1000.0 nM
[28] = target: Dual specificity testis-specific protein kinase 1 (Homo sapiens) (UniProt Q15569); details: Compound concentration 1000.0 nM
Dual specificity testis-specific protein kinase 1 (Homo sapiens), sequence (Q15569 whole entry, looked up): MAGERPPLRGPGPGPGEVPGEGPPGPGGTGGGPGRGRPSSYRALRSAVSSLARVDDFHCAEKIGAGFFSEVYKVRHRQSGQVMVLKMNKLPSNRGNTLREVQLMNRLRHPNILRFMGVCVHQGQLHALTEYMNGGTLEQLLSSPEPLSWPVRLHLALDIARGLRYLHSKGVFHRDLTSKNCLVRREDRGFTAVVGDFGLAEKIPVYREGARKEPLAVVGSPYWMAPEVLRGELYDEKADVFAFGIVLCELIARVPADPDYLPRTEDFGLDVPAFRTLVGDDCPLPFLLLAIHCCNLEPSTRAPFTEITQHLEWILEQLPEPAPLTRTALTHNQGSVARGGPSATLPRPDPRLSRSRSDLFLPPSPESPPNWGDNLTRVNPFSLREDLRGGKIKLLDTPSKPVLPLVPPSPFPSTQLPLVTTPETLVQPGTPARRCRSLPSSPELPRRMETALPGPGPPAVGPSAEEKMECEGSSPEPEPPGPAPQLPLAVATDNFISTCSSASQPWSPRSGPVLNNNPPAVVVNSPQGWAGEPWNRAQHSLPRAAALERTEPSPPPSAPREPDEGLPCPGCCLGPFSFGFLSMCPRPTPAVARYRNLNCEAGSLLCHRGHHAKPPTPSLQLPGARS

[29] = target: TGF-beta receptor type-2 (Homo sapiens) (UniProt P37173); details: Compound concentration 1000.0 nM
[30] = target: T1, 5-hydroxytryptamine receptor 2C (Homo sapiens) (UniProt P28335); details: Compound concentration 10.0 uM
T1 sequence (whole entry): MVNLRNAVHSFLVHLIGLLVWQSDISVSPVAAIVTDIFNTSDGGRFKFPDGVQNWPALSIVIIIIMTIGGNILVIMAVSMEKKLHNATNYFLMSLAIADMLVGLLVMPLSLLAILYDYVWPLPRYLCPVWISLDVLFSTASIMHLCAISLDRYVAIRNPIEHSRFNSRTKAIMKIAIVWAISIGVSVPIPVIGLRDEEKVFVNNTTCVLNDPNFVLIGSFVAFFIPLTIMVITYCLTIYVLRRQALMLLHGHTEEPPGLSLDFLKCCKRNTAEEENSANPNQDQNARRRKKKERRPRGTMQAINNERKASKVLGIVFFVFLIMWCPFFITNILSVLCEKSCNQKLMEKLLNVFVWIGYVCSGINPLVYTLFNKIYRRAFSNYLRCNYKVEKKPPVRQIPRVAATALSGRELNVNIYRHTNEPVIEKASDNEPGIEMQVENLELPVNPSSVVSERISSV

[31] = target: Mu-type opioid receptor (Homo sapiens) (UniProt P35372); details: Compound concentration 10.0 uM
[32] = target: T2, Alpha-1A adrenergic receptor (Homo sapiens) (UniProt P35348); details: Compound concentration 10.0 uM
T2 sequence (whole entry): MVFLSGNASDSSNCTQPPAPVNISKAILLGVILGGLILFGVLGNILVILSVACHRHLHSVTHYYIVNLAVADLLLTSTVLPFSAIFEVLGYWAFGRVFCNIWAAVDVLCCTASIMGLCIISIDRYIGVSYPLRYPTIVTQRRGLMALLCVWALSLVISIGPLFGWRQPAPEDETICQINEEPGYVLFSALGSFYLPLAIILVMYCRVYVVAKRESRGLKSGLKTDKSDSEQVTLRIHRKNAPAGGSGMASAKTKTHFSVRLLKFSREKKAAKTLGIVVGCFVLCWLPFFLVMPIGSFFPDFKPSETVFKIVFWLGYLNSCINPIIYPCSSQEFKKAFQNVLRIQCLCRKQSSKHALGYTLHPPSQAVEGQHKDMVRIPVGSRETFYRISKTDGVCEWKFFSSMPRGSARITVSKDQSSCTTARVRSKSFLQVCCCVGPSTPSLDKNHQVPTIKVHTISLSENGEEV

In the case of `O=C(NCc1ncc(C(F)(F)F)cc1Cl)c1ccc2c(c1)C1(CCS(=O)(=O)CC1)[C@H](C1CC1)N2S(=O)(=O)c1ccc(F)cc1` [BAY-784], the residual activity [1] was 88%, the residual activity [2] was 96% and the residual activity [3] was 39%. For the same compound, the residual activity [4] was 66%, the residual activity [5] was 100% and the residual activity [6] was 100%. The residual activity [7] was 100%, the residual activity [8] was 100% and the residual activity [9] was 100%. The residual activity [10] was 97%, the residual activity [11] was 100% and the residual activity [12] was 92%. It also gave a residual activity [13] of 77%, a residual activity [14] of 100% and a residual activity [15] of 100%. It also gave a residual activity [16] of 100%, a residual activity [17] of 54% and a residual activity [18] of 83%. The residual activity [19] was 100%, the residual activity [20] was 100% and the residual activity [21] was 99%. For the same compound, the residual activity [22] was 100%, the residual activity [23] was 100% and the residual activity [24] was 100%. For the same compound, the residual activity [25] was 84%, the residual activity [26] was 88% and the residual activity [27] was 80%. It also gave a residual activity [28] of 91%, a residual activity [29] of 100% and an inhibition [30] of 9.65%. The inhibition [31] was 29.1% and the inhibition [32] was -0.32%.

`O=C(NCc1ncc(C(F)(F)F)cc1Cl)c1ccc2c(c1)C1(CCS(=O)(=O)CC1)[C@@H](C1CC1)N2S(=O)(=O)c1ccc(F)cc1` [BAY-786] gave a residual activity [1] of 78%, a residual activity [2] of 90% and a residual activity [3] of 97%. The residual activity [4] was 66%, the residual activity [5] was 100% and the residual activity [6] was 82%. It also gave a residual activity [7] of 85%, a residual activity [8] of 100% and a residual activity [9] of 86%. It also gave a residual activity [10] of 100%, a residual activity [11] of 100% and a residual activity [12] of 100%. It also gave a residual activity [13] of 82%, a residual activity [14] of 68% and a residual activity [15] of 100%. The residual activity [16] was 89%, the residual activity [17] was 61% and the residual activity [18] was 76%. It also gave a residual activity [19] of 100%, a residual activity [20] of 96% and a residual activity [21] of 99%. The residual activity [22] was 100%, the residual activity [23] was 94% and the residual activity [24] was 99%. For the same compound, the residual activity [25] was 74%, the residual activity [26] was 100% and the residual activity [27] was 84%. It also gave a residual activity [28] of 85%, a residual activity [29] of 71% and an inhibition [30] of 16.9%. For the same compound, the inhibition [31] was 13.1% and the inhibition [32] was 1.7%.
